Measured values reported in ChEMBL document CHEMBL5360532, “Current scenario of quinolone hybrids with potential antibacterial activity against ESKAPE pathogens” (Eur J Med Chem, 2023).
In brackets after ≈: the same amount, converted by molar mass.

Experiments:
Format in all cases: functional
Staphylococcus aureus [1] = assay: Antibacterial activity against Staphylococcus aureus ATCC 25923 assessed as bacterial growth inhibition measured after 18 hrs by agar dilution assay
Escherichia coli [2] = assay: Antibacterial activity against Escherichia coli ATCC 25922 assessed as bacterial growth inhibition measured after 18 hrs by agar dilution assay
Staphylococcus aureus [3] = assay: Antibacterial activity against Staphylococcus aureus assessed as bacterial growth inhibition by broth microdilution assay
Pseudomonas aeruginosa [4] = assay: Antibacterial activity against Pseudomonas aeruginosa assessed as bacterial growth inhibition by broth microdilution assay
Escherichia coli [5] = assay: Antibacterial activity against Escherichia coli assessed as bacterial growth inhibition by two fold microdilution assay
Klebsiella pneumoniae = assay: Antibacterial activity against Klebsiella pneumoniae assessed as bacterial growth inhibition by two fold microdilution assay
Staphylococcus aureus [6] = assay: Antibacterial activity against Staphylococcus aureus assessed as bacterial growth inhibition by two fold microdilution assay
[7] = test system: Mycobacterium tuberculosis; assay: Antimycobacterial activity against Mycobacterium tuberculosis H37Rv assessed as bacterial growth inhibition by broth microdilution assay
Escherichia coli [8] = assay: Antibacterial activity against Escherichia coli assessed as bacterial growth inhibition by broth microdilution assay
Enterococcus faecalis = assay: Antibacterial activity against Enterococcus faecalis assessed as bacterial growth inhibition by broth microdilution assay
Escherichia coli [9] = assay: Antibacterial activity against fluoroquinolone Escherichia coli assessed as bacterial growth inhibition by broth microdilution assay
Escherichia coli [10] = assay: Potency index, ratio of ciprofloxacin MIC to test compound MIC for antimicrobial activity against Escherichia coli assessed as bacterial growth inhibition by agar cup diffusion assay
Escherichia coli [11] = assay: Antibacterial activity against Escherichia coli ATCC 8739 assessed as bacterial growth inhibition by two fold microdilution assay
Staphylococcus aureus [12] = assay: Antibacterial activity against Staphylococcus aureus ATCC 6538P assessed as bacterial growth inhibition by two fold microdilution assay
Staphylococcus aureus [13] = assay: Antibacterial activity against clinical isolate methicillin resistant Staphylococcus aureus assessed as bacterial growth inhibition by microdilution assay
Staphylococcus aureus [14] = assay: Antibacterial activity against Staphylococcus aureus ATCC 25923 assessed as bacterial growth inhibition by microdilution assay
Escherichia coli [15] = assay: […] activity against Escherichia coli assessed as bacterial growth inhibition by broth dilution assay
Staphylococcus aureus [16] = assay: Antibacterial activity against Staphylococcus aureus assessed as bacterial growth inhibition by agar cup diffusion assay
Staphylococcus aureus [17] = assay: Antibacterial activity against methicillin resistant Staphylococcus aureus assessed as bacterial growth inhibition by agar cup diffusion assay
Escherichia coli [18] = assay: Antibacterial activity against Escherichia coli ATCC 10536 assessed as bacterial growth inhibition measured after 24 to 48 hrs by agar dilution assay; conditions: time 24-48 hrs
Pseudomonas aeruginosa [19] = assay: Antibacterial activity against Pseudomonas aeruginosa ATCC 11632 assessed as bacterial growth inhibition measured after 24 to 48 hrs by agar dilution assay; conditions: time 24-48 hrs

`CCn1cc(C(=O)O)c(=O)c2cnc(N3CCN(Cc4cn(-c5ccccc5)nn4)CC3)nc21` gave an MIC (Staphylococcus aureus [1]) of 0.12 µg/mL (≈ 0.261 µM) and an MIC (Escherichia coli [2]) of 0.12 µg/mL (≈ 0.261 µM).

With `O=C(CSC(=S)N1CCN(c2cc3c(cc2F)c(=O)c(C(=O)O)cn3C2CC2)CC1)Nc1cccc(Cl)c1` the MIC (Staphylococcus aureus [3]) was 0.024 µg/mL (≈ 0.0417 µM) and the MIC (Pseudomonas aeruginosa [4]) was 0.024 µg/mL (≈ 0.0417 µM).

For `CCn1cc(C(=O)O)c(=O)c2cc(F)c(N3CCN(Cn4nc(Cn5nc(C)n(/N=C/c6ccccc6O)c5=O)n(-c5ccccc5)c4=O)CC3)cc21`, the MIC (Escherichia coli [5]) was < 0.24 µg/mL, the MIC (Klebsiella pneumoniae) was < 0.24 µg/mL and the MIC (Staphylococcus aureus [6]) was < 28 µg/mL.

`NNC(=O)c1ccncc1` [ISONIAZID] was tested, and the MIC [7] was 1.5 µg/mL (≈ 10.9 µM).

`CCCCCCOc1ccc(C2C(Cl)C(=O)N2c2cc3[nH]cc(C(=O)O)c(=O)c3cc2F)cc1` (stereo not drawn) gave an MIC (Staphylococcus aureus [3]) of 0.02 µg/mL (≈ 0.0411 µM), an MIC (Escherichia coli [8]) of 0.02 µg/mL (≈ 0.0411 µM) and an MIC (Enterococcus faecalis) of 0.02 µg/mL (≈ 0.0411 µM). For the same compound, the MIC (Escherichia coli [9]) was 0.02 µg/mL (≈ 0.0411 µM).

With `COc1cc(-n2nnnc2SCCC(=O)N2CCN(c3cc4c(cc3F)c(=O)c(C(=O)O)cn4C3CC3)CC2)cc(OC)c1OC` the Ratio (Escherichia coli [10]) was 2.

`CCn1cc(C(=O)O)c(=O)c2cc(F)c(N3CCN(Cn4nc(-c5cccs5)n(-c5ccc(OC)cc5)c4=S)CC3)cc21` was tested, and the MIC (Klebsiella pneumoniae) was ≤ 0.125 µg/mL, the MIC (Escherichia coli [11]) was ≤ 0.125 µg/mL and the MIC (Staphylococcus aureus [12]) was ≤ 0.125 µg/mL.

With `Cc1nn(Cc2nn(CN3CCN(c4cc5c(cc4F)c(=O)c(C(=O)O)cn5C4CC4)CC3)c(=S)n2Cc2ccccc2)c(=O)n1/N=C/c1ccccc1O` the MIC (Escherichia coli [5]) was < 0.24 µg/mL, the MIC (Klebsiella pneumoniae) was < 0.24 µg/mL and the MIC (Staphylococcus aureus [6]) was < 28 µg/mL.

`Cc1nn(Cc2nn(CN3CCN(c4cc5c(cc4F)c(=O)c(C(=O)O)cn5C4CC4)CC3)c(=O)n2-c2ccccc2)c(=O)n1/N=C/c1ccccc1O` was tested, and the MIC (Escherichia coli [5]) was < 0.24 µg/mL, the MIC (Klebsiella pneumoniae) was < 0.24 µg/mL and the MIC (Staphylococcus aureus [6]) was < 28 µg/mL.

With `COc1c(N2C[C@H]3CCCN(S(=O)(=O)c4ccc(F)cc4)[C@H]3C2)c(F)cc2c(=O)c(C(=O)O)cn(C3CC3)c12` the MIC (Staphylococcus aureus [13]) was < 2.64 µg/mL and the MIC (Staphylococcus aureus [14]) was < 2.64 µg/mL.

Work on `O=C(O)c1cn(C2CC2)c2cc(N3CCN(C(=O)CCSc4nnnn4-c4ccc(Br)cc4)CC3)c(F)cc2c1=O` yielded a Ratio (Escherichia coli [10]) of 2.

With `CCn1nnnc1SCCC(=O)N1CCN(c2cc3c(cc2F)c(=O)c(C(=O)O)cn3C2CC2)CC1` the Ratio (Escherichia coli [10]) was 2.

Work on `CCn1cc(C(=O)O)c(=O)c2cnc(N3CCN(Cn4nc(-c5ccc(OC)cc5)n(-c5ccc(C(C)(C)C)cc5)c4=S)CC3)nc21` yielded an MIC (Escherichia coli [15]) of 0.98 µg/mL (≈ 1.5 µM).

`CCn1cc(C(=O)O)c(=O)c2cc(F)c(N3CCN(Cn4nc(-c5ccncc5)oc4=S)CC3)cc21` was tested, and the MIC (Staphylococcus aureus [3]) was ≤ 0.125 µg/mL, the MIC (Escherichia coli [8]) was ≤ 0.125 µg/mL and the MIC (Pseudomonas aeruginosa [4]) was ≤ 0.125 µg/mL.

In the case of `CCn1cc(C(=O)O)c(=O)c2cc(F)c(N3CCN(Cn4nc(-c5ccccn5)n(-c5ccc(OC)cc5)c4=S)CC3)cc21`, the MIC (Klebsiella pneumoniae) is reported as ≤ 0.125 µg/mL, the MIC (Escherichia coli [11]) is reported as ≤ 0.125 µg/mL and the MIC (Staphylococcus aureus [12]) is reported as ≤ 0.125 µg/mL.

`CCn1cc(C(=O)O)c(=O)c2cc(F)c(N3CCN(Cc4cn(-c5ccc([N+](=O)[O-])cc5)nn4)CC3)cc21` gave an MIC (Staphylococcus aureus [1]) of 0.12 µg/mL (≈ 0.23 µM) and an MIC (Escherichia coli [2]) of 0.12 µg/mL (≈ 0.23 µM).

Work on `O=C(O)c1cn(C2CC2)c2cc(N3CCN(C(=O)CN4C(=O)S/C(=C\c5ccco5)C4=O)CC3)c(F)cc2c1=O` yielded an MIC (Staphylococcus aureus [16]) of 0.005 µg/mL (≈ 0.00883 µM) and an MIC (Staphylococcus aureus [17]) of 0.22 µg/mL (≈ 0.388 µM).

For `CCn1cc(C(=O)O)c(=O)c2cc(F)c(N3CCN(Cn4nc(Cn5nc(C)n(/N=C/c6ccccc6O)c5=O)n(-c5ccccc5)c4=S)CC3)cc21`, the MIC (Escherichia coli [5]) was < 0.24 µg/mL, the MIC (Klebsiella pneumoniae) was < 0.24 µg/mL and the MIC (Staphylococcus aureus [6]) was < 28 µg/mL.

For `Cc1nn(Cc2nn(CN3CCN(c4cc5c(cc4F)c(=O)c(C(=O)O)cn5C4CC4)CC3)c(=S)n2-c2ccccc2)c(=O)n1/N=C/c1ccccc1O`, the MIC (Escherichia coli [5]) was < 0.24 µg/mL, the MIC (Klebsiella pneumoniae) was < 0.24 µg/mL and the MIC (Staphylococcus aureus [6]) was < 28 µg/mL.

With `CO[C@H]1/C=C/O[C@@]2(C)Oc3c(C)c(O)c4c(O)c(c(/C=N/N5CCN(C)CC5)c(O)c4c3C2=O)NC(=O)/C(C)=C\C=C\[C@H](C)[C@H](O)[C@@H](C)[C@@H](O)[C@@H](C)[C@H](OC(C)=O)[C@@H]1C` [RIFAMPIN] the MIC [7] was 1 µg/mL (≈ 1.22 µM).

For `CC1(C)S[C@@H]2[C@H](NC(=O)[C@H](N)c3ccccc3)C(=O)N2[C@H]1C(=O)O` [AMPICILLIN], the MIC (Escherichia coli [18]) was 0.5 µg/mL (≈ 1.43 µM) and the MIC (Pseudomonas aeruginosa [19]) was 0.5 µg/mL (≈ 1.43 µM).

With `CCn1cc(C(=O)O)c(=O)c2cc(F)c(N3CCN(Cn4nc(Cn5nc(C)n(/N=C/c6ccccc6O)c5=O)n(Cc5ccccc5)c4=S)CC3)cc21` the MIC (Escherichia coli [5]) was < 0.24 µg/mL, the MIC (Klebsiella pneumoniae) was < 0.24 µg/mL and the MIC (Staphylococcus aureus [6]) was < 28 µg/mL.

`O=C(O)c1cn(C2CC2)c2cc(N3CCN(C(=O)CCSc4nnnn4-c4ccccc4)CC3)c(F)cc2c1=O` was tested, and the Ratio (Escherichia coli [10]) was 2.

`COc1c(N2C[C@H]3CCCN(S(=O)(=O)c4ccc(Cl)cc4)[C@H]3C2)c(F)cc2c(=O)c(C(=O)O)cn(C3CC3)c12` was tested, and the MIC (Staphylococcus aureus [13]) was < 2.64 µg/mL and the MIC (Staphylococcus aureus [14]) was < 2.64 µg/mL.

For `O=C(O)c1cn(C2CC2)c2cc(N3CCN(C(=O)CCSc4nnnn4-c4ccc(F)c(F)c4F)CC3)c(F)cc2c1=O`, the Ratio (Escherichia coli [10]) was 2.
